Laboratory results reported in patent US4181657A, “2-Aminooctahydroindolo[2,3-a]quinolizines useful in treating cardiovascular disorders” (Miles Laboratories, Inc., priority 1978, dated 1980).
Where a name gives a salt, the structure may show the parent alone.

Legend:
Type in all cases: in vivo
dog heart in situ = assay: Antianginal activity: aortic-coronary sinus difference in oxygen (myocardial oxygen consumption) in anesthetized dogs; conditions: 1 mg/kg i.v.; for antianginal activity (conclusion in words): based upon comparison with nitroglycerin, named compounds 'particularly'
Description: Angina pectoris is a clinical condition of hypoxia that results from an imbalance in myocardial oxygen supply and demand. A drug reducing oxygen demand is useful in the treatment of angina pectoris, as has been the case with nitroglycerin and the beta-adrenergic blocking agents like propranolol (J. R. Paratt, Advan. Drug Res. 9:103-134, 1974). Accordingly,the antianginal activity of 2-substituted indoloquinolizines was evaluated by assessing their capacity to reduce oxygen consumption by the dog heart in situ. This method allows measurement of the difference in oxygen content of the arterial and venous blood.
Mongrel dogs were anesthetized with pentobarbital and cannulas inserted in the trachea and in a femoral vein for artificial respiration with room air and for injection of test compounds, respectively. Heparin was administered intravenously to prevent blood clotting. The chest was opened at the sternal midline and an additional cannula introduced in the coronary sinus. Samples of blood were obtained from the coronary sinus cannula and from the thoracic aorta by direct puncture of the vessel. Partial pressure of oxygen in the samples was determined with a blood gas analyzer. Test compounds were injected intravenously at a dose of 1 mg/kg; oxygen measurements were made before administration and at 1, 5, 10, 20, 30, 40, 50 and 60 min after administration. One animal was used per test compound. As the standard of comparison, nitroglycerin was administered to a test animal and measurements were made in a similar manner.
Differences between partial pressure values in arterial and venous blood samples were calculated for each measurement. Since coronary sinus blood is representative of the venous effluent from the heart, these differences reflect the consumption of oxygen by the myocardium. Thus, the decrease in arteriovenous oxygen difference produced by the compounds by this invention indicates a reduction in myocardial oxygen consumption.

[1] = test system: ventricular arrhythmia produced by chloroform; assay: Antiarrhythmic activity: protection from chloroform-induced ventricular arrhythmia in mice (Lawson model); conditions: mouse; for ED50: ip, 10 min, i.p., 10 min before chloroform, 95% confidence limits in parentheses, read-out: ED50 (95% C.L.); for mice protected of 5 / Antiarrhythmic activity, ED50 symbol (failed screening dose): 31 mg/kg i.p.; for Antiarrhythmic activity, ED50 symbol (failed screening dose): groups of 5 mice
Description: The antiarrhythmic activity of the compounds of this invention was determined in the experimental model described by J. W. Lawson (J. Pharmacol. Exper. Therap. 160:22-31, 1968). Test compounds were administered to groups of 5 mice at an intraperitoneal dose of 31 mg/kg. Ten minutes after injection each mouse was placed in a covered 300 ml glass beaker which contained cotton saturated with chloroform. The animal was observed closely and removed from the beaker immediately after respiratory arrest. The heart was quickly exposed by making an incision through the abdomen, diaphragm, thorax and pericardium for visual inspection of ventricular rate and rhythm. Ventricular contractions were counted for 30 seconds and animals with a rate not exceeding 100 beats per 30 seconds were considered protected from the ventricular arrhythmia produced by chloroform. Compounds protecting at least 3 of the 5 mice were subsequently tested at various doses and the results obtained were used to calculate the mean effective doses (ED50) and 95% confidence limits after the method of Litchfield and Wilcoxon (J. Pharmacol. Exper. Therap. 96:99-113, 1949). Table A presents the results obtained in the antiarrhythmic study.

Systolic Blood Pressure = assay: Antihypertensive activity: indirect systolic blood pressure in renal hypertensive rats; conditions: rat, 31 mg/kg p.o., * in table = statistically significant change from control
Description: Rats were made hypertensive by applying a figure of eight ligature to one kidney and removing the contralateral kidney two weeks later. At least four weeks after the second operation the animals were subjected to indirect systolic blood pressure measurements with an occluding cuff and pulse sensor system applied to the tail. Pressure measurements were made before and 1,2,4,6 and 8 hours after oral administration of the test compounds at a dose of 31 mg/kg. Each compound was tested in 5 or 10 rats. Statistical significance of differences between control and post treatment values was determined by Wilcoxon's signed rank test (F. Wilcoxon and R. A. Wilcox, Some Rapid Approximate Statistical Procedures, Lederle Laboratories, Pearl River, 1964).

Structure (SMILES) | Arterio-Venous Difference in Oxygen Partial Pressure at 1 min (dog heart in situ) [mmHg] | Arterio-Venous Difference in Oxygen Partial Pressure at 5 min (dog heart in situ) [mmHg] | Arterio-Venous Difference in Oxygen Partial Pressure at 10 min (dog heart in situ) [mmHg] | Arterio-Venous Difference in Oxygen Partial Pressure at 20 min (dog heart in situ) [mmHg] | Arterio-Venous Difference in Oxygen Partial Pressure at 30 min (dog heart in situ) [mmHg] | Arterio-Venous Difference in Oxygen Partial Pressure at 40 min (dog heart in situ) [mmHg] | Arterio-Venous Difference in Oxygen Partial Pressure at 50 min (dog heart in situ) [mmHg] | Arterio-Venous Difference in Oxygen Partial Pressure at 60 min (dog heart in situ) [mmHg] | ED50 [1] [mg/kg] | mice protected of 5 [1] | antianginal activity (conclusion in words) (dog heart in situ) | Change in Systolic Blood Pressure at 1 hr (Systolic Blood Pressure) | Change in Systolic Blood Pressure at 2 hr (Systolic Blood Pressure) | Change in Systolic Blood Pressure at 4 hr (Systolic Blood Pressure) | Change in Systolic Blood Pressure at 6 hr (Systolic Blood Pressure) | Change in Systolic Blood Pressure at 8 hr (Systolic Blood Pressure) | Antiarrhythmic activity, ED50 symbol (failed screening dose) [1]
O=[N+]([O-])OCC(CO[N+](=O)[O-])O[N+](=O)[O-] [Nitroglycerin, nitroglycerin, reference compound] | 13 | 21 | 20 | 20 | 21 | 21 | 18 | 20 | – | – | – | – | – | – | – | – | –
c1ccc(Cn2c3c(c4ccccc42)CCN2CCC(Nc4ccccc4)CC32)cc1 (centres unmarked) [TR2981, 2-anilino-12-benzyl-1,2,3,4,6,7,12,12b-octahydroindolo[2,3-a]quinolizine dihydrochloride] | 17 | 20 | 21 | 22 | 23 | 24 | 24 | 24 | 31 | at least 3 of 5 mice | antianginal activity is seen | -2 mmHg | +5 mmHg | -5 mmHg | +7 mmHg | +16 mmHg | –
O=[N+]([O-])c1cccc(NC2CCN3CCc4c(n(Cc5ccccc5)c5ccccc45)C3C2)c1 (centres unmarked) [TR2998, 12-benzyl-2-(3-nitroanilino)-1,2,3,4,6,7,12,12b-octahydroindolo[2,3-a]quinolizine] | 12 | 16 | 18 | 17 | 18 | 17 | 19 | 20 | 12 | at least 3 of 5 mice | antianginal activity is seen | 0 mmHg | -2 mmHg | -4 mmHg | 0 mmHg | -4 mmHg | –
COc1ccc(NC2CCN3CCc4c(n(Cc5ccccc5)c5ccccc45)C3C2)cc1.Cl.Cl (centres unmarked) [TR3006, 12-benzyl-2-(4-methoxyanilino)-1,2,3,4,6,7,12,12b-octahydroindolo[2,3-a]quinolizine dihydrochloride] | 30 | 44 | 45 | 42 | 37 | 38 | 36 | 36 | – | – | antianginal activity is seen | -28 mmHg | -20 mmHg | -18 mmHg | -12 mmHg | -14 mmHg | * (Did not protect 3 of 5 mice and thus was not tested further.)
Cc1cccc(NC2CCN3CCc4c(n(Cc5ccccc5)c5ccccc45)C3C2)c1.Cl.Cl (centres unmarked) [TR3008, 12-benzyl-2-(3-methylanilino)-1,2,3,4,6,7,12,12b-octahydroindolo[2,3-a]quinolizine dihydrochloride] | 20 | 23 | 22 | 23 | 25 | 25 | 24 | 25 | – | – | – | -27 mmHg | -24 mmHg | -17 mmHg | -17 mmHg | -20 mmHg | * (Did not protect 3 of 5 mice and thus was not tested further.)
Brc1cccc(NC2CCN3CCc4c(n(Cc5ccccc5)c5ccccc45)C3C2)c1.Cl (centres unmarked) [TR3014, 12-benzyl-2-(3-bromoanilino)-1,2,3,4,6,7,12,12b-octahydroindolo[2,3-a]quinolizine hydrochloride] | 17 | 18 | 26 | 25 | 26 | 26 | 26 | 24 | 32 | at least 3 of 5 mice | antianginal activity is seen | +1 mmHg | -16 mmHg | -2 mmHg | 0 mmHg | -3 mmHg | –
Brc1ccc(NC2CCN3CCc4c(n(Cc5ccccc5)c5ccccc45)C3C2)cc1.Cl.Cl (centres unmarked) [TR3631, 12-benzyl-2-(4-bromoanilino)-1,2,3,4,6,7,12,12b-octahydroindolo[2,3-a]quinolizine dihydrochloride] | 26 | 33 | 32 | 30 | 30 | 32 | 31 | 31 | 37 | at least 3 of 5 mice | antianginal activity is seen | +10 mmHg | -5 mmHg | +12 mmHg | +3 mmHg | 0 mmHg | –
